Data taken from patent US8236510B2, “Protein showing enhanced expression in cancer cells” (Agensys, Inc., priority 1999, dated 2012).

Legend:
3T3-101P3A11 tumors = assay: Subcutaneous growth of 3T3-101P3A11 tumors in SCID mice; format: in vivo
Experimental: (2) Regulated expression under control of an inducible vector system, such as ecdysone, tet, etc., can be used provided such promoters are compatible with the host cell systems. […] FIG. 21 compares subcutaneous growth of control 3T3-neo and 3T3-101P3A11 cells. One million cells stably expressing neo or 101P3A11 were injected subcutaneously in SCID mice along with matrigel. Tumor volume was evaluated by caliper measurements. […] Additionally, SCID mice were implanted with the same 3T3-101P3A11 cells orthotopically in the prostate to determine if 101P3A11 has an effect on local growth in the prostate or on the ability of the cells to metastasize, specifically to lungs or lymph nodes. […] In an analogous manner, cells can be implanted orthotopically in the bladder, colon or kidney. (Saffran, D., et al., PNAS 10:1073-1078; Fu, X., et al., Int. J. Cancer, 1991, 49: p. 938-939; Chang, S., et al., Anticancer Res., 1997, 17: p. 3239-3242; Peralta, E. A., et al., J. Urol., 1999, 162: p. 1806-1811). The tumor enhancing effect of 101P3A11 was also observed when 101P3A11 is expressed in prostate cancer cells such as PC3 and introduced into the prostate of SCID mice (Figure M11). A 2.5 fold increase in tumor weight is observed in tumors expressing 101P3A11 relative to control cells.
Furthermore, these assays is useful to confirm the anti-101P3A11 inhibitory effects of candidate therapeutic compositions, such as for example, 101P3A11 antibodies or intrabodies, and 101P3A11 antisense molecules or ribozymes, or 101P3A11 directed small molecules. In FIG. 22, we depict the effect of a small molecule, pertussis toxin (PTX) on tumor formation by 3T3-101P3A11 cells. In this experiment, SCID mice were injected with 3T3-101P3A11 alone or in conjunction with PTX. Each mouse was given 5 doses of PTX at 3-4 days interval. Tumor volume was evaluated by caliper measurements. […] Similarly, treatment with the G-protein inhibitor suramin inhibits the growth of 3T3-101P3A11 tumors (Figure M13).

[1] = test system: ERK phosphorylation in PC3-101P3A11 cells; assay: ERK phosphorylation in PC3-101P3A11 and PC3-neo cells (anti-Phospho-ERK Western blot); format: cell-based, human; settings: PC3-101P3A11 cells
Experimental: Using Western blotting and other techniques, the ability of 101P3A11 to regulate these pathways is confirmed. Cells expressing or lacking 101P3A11 are either left untreated or stimulated with cytokines, androgen and anti-integrin antibodies. Cell lysates were analyzed using anti-phospho-specific antibodies (Cell Signaling, Santa Cruz Biotechnology) in order to detect phosphorylation and regulation of ERK, p38, AKT, PI3K, PLC and other signaling molecules. […] In the experiment, data shown in FIG. 26, control 3T3-neo and 3T3-101P3A11 cells were either treated with 0.5 or 10% FBS and whole cell lysates were analyzed by anti-phosphotyrosine Western blotting.
In this experiment, control PC3-neo cells and PC3-101P3A11 cells were left untreated (0.1% FBS) or were stimulated with 10% FBS, lipophosphatidic acid (LPA), gastrin releasing peptide (GRP), leukotriene (LKB4) or platelet activating factor (PAF). The cells were lysed and analyzed by Western blotting using anti-Phospho-ERK (FIG. 27A) or anti-ERK (FIG. 27B) mAb. […] In order to delineate the signaling pathway by which 101P3A11 mediates ERK phosphorylation in cancer cells, it was confirmed which of the two pathway inhibitors: MEK inhibitor PD98059 or the p38 inhibitor SB203580 regulate 101P3A11 mediated ERK phosphorylation (FIG. 28). […] Cells were lysed and analyzed by Western blotting using anti-Phospho-ERK or anti-ERK mAb. Treatment with 10% FBS or with GRP induced the phosphorylation of ERK in PC3-101P3A11 but not in control PC3-neo cells. 101P3A11-mediated ERK phosphorylation was inhibited by the MEK-1 inhibitor PD98059 but not the p38 inhibitor SB203580 or genistein.
Results in FIGS. 26-28 indicate that 101P3A11 regulates the activity of kinases, including ERK, and phosphatases. In order to confirm the association of 101P3A11 with phosphatase activity, the effect of the protein phosphatase inhibitor sodium orthovanadate on 101P3A11 mediated ERK phosphorylation was determined (FIG. 29). PC3-neo and PC3-101P3A11 cells were grown in media alone or in the presence of sodium orthovanadate (Na3VO4), and were stimulated with 0.1% or 10% FBS. Cells were lysed and analyzed by Western blotting using anti-Phospho-ERK or anti-ERK mAb. […] Results in FIG. 29 confirm the contribution of protein phosphatases to 101P3A11 mediated signaling.
In order to determine whether 101P3A11 signaling results in the activation of EGFR, we compared the effect of the EGFR inhibitor, AG1517, on EGFR- and 101P3A11-mediated ERK phosphorylation (FIG. 30). In FIG. 30, PC3-neo and PC3-101P3A11 cells were grown in media alone (0.1% FBS) or in the presence of AG1517. The cells were stimulated with 0.1% or 10% FBS, GRP or EGF, lysed and analyzed by Western blotting using anti-Phospho-ERK or anti-ERK mAb. Treatment with 10% FBS, GRP and EGF induced ERK phosphorylation in PC3-101P3A11 cells. […] Data in FIG. 30 indicate that some cross talk occurred between 101P3A11 and EGFR signaling pathways.
Since adenylate cyclase activity modulates intracellular levels of cAMP and induce downstream signaling events such as activation of protein kinase A, calcium and ERK MAPK signaling (Pierce K. L., et al, Oncogene. 2001, 20: 1532), we determined that PTX, an inhibitor of adenylate cyclase signaling, prevents 101P3A11-mediated ERK phosphorylation along with inhibiting cAMP accumulation (FIG. 33 and FIG. 34). PC3-neo and PC3-101P3A11 cells were grown overnight in 0.1% FBS in media alone or in the presence of pertussis toxin (PTX). Cells were stimulated with 0.1% or 10% FBS (FIG. 33) or 10% FBS, EGF or GRP (FIG. 34). Cells were lysed and analyzed by Western blotting using anti-Phospho-ERK mAb. Expression of 101P3A11 mediated ERK phosphorylation by 10% FBS in PC3 cells, which was inhibited by PTX (FIG. 33 and FIG. 34).
GPCR transmit their signal by activating trimeric G proteins. […]

Substance: pertussis toxin [PTX]
- inhibition of tumor growth (3T3-101P3A11 tumors; 5 doses at 3-4 days interval, tumor volume by caliper): inhibits tumor growth in a dose dependent manner
- inhibition of tumor growth (3T3-101P3A11 tumors; 5 doses at 3-4 days interval, tumor volume by caliper, listed as Pertussis toxin): inhibit
- inhibition of tumor growth (3T3-101P3A11 tumors; 5 time per week, after 25 days): 70%
- inhibition of FBS-mediated ERK phosphorylation ([1]; 10% FBS): inhibited
- effect on GRP and EGF-mediated ERK phosphorylation ([1]; GRP or EGF): relatively unaffected
